Like-named read-outs stand apart in the source and are kept apart here.
How the values were obtained:
solid malignancies = details: 43 patients; patient with papillary carcinoma of the thyroid (Schwartsmann); cited from earlier work
[1] = Adverse events in subjects receiving brequinar intravenously once a week (Example 2); format: in vivo, human; details: 209 subjects, i.v. once a week, median dose 1200 mg/m^2
[2] = test system: acute myeloid leukemia (AML); assay: Clinical response of patients with AML to brequinar-containing composition (Examples 9-11); format: in vivo, human
DHODH [3] = target: DHODH (Homo sapiens, UniProt Q02127); details: for DHO plasma level threshold achieved: after a dose
DHODH (Homo sapiens, UniProt Q02127), sequence (Q02127 whole entry): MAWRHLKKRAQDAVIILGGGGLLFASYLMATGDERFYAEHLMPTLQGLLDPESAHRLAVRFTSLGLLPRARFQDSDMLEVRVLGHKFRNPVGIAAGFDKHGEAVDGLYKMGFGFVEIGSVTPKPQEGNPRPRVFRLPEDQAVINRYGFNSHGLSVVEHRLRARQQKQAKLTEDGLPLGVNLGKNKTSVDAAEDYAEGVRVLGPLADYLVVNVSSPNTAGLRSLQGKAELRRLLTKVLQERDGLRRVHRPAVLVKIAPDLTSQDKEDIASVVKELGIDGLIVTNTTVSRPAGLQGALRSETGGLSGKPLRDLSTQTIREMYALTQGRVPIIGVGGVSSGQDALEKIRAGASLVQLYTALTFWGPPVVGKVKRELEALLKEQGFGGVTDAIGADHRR

mouse model of AML = details: daily administration of high doses; cited from earlier work
advanced malignancies = details: cited from earlier work
DHODH [4] = target: DHODH (Mus musculus, UniProt O35435); assay: Plasma DHO in mice after brequinar 50 mg/kg (FIG. 6); details: at about 84 hours, FIG. 6 dashed line
DHODH (Mus musculus, UniProt O35435), sequence (O35435 whole entry): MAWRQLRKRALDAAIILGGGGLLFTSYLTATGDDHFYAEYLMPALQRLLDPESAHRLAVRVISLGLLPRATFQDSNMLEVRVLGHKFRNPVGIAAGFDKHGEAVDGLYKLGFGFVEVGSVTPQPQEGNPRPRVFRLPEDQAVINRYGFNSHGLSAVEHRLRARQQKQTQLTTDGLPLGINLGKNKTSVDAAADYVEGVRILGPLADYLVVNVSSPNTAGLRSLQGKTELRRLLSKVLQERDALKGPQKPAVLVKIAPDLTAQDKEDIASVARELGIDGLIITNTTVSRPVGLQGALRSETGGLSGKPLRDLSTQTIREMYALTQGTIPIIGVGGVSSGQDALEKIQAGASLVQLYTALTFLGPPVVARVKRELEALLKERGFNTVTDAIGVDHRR

[5] = Example 9, first patient with AML, threshold 1,600 ng/mL
[6] = Example 10, second patient with AML, threshold 2,900 ng/mL
[7] = Example 11, patient with AML, threshold 133 ng/mL

Row | SMILES | tumor response observed (solid malignancies) | Dyspepsia: No. of Patients Experiencing the AE, Max Grade 1 [1] | clinical response ([2]; Example 9, first patient with AML, bone marrow blast count, extramedullary hematopoiesis, differentiation of peripheral blasts) | clinical response ([2]; Example 10, second patient with AML, peripheral blasts, absolute neutrophil count, differentiation of peripheral blasts) | clinical response ([2]; Example 11, patient with AML, trend towards differentiation of peripheral blasts) | DHO plasma level threshold achieved (DHODH [3]; Example 9, first patient with AML) | time remained above DHO threshold (DHODH [3]; [5]) | time to achieve DHO plasma level threshold (DHODH [3]; [5]) | DHO plasma level threshold achieved (DHODH [3]; Example 10, second patient with AML) | time remained above DHO threshold (DHODH [3]; [6]) | time to achieve DHO plasma level threshold (DHODH [3]; [6]) | DHO plasma level threshold achieved (DHODH [3]; Example 11, patient with AML) | time remained above DHO threshold (DHODH [3]; [7]) | time to achieve DHO plasma level threshold (DHODH [3]; [7]) | toxicity in mouse model of AML (mouse model of AML) | effect of combination on individual drug pharmacokinetic parameters (advanced malignancies; 650 mg/m^2 brequinar with 75 mg/m^2 cisplatin (Burris)) | brequinar dose that can be administered with full dose cisplatin (advanced malignancies; brequinar days 1, 8 and 15 with 75 mg/m^2 cisplatin day 1, 28-day cycle (Burris)) | concentration of DHO remaining in the plasma (DHODH [4])
1 | Cc1c(-c2ccc(-c3ccccc3F)cc2)nc2ccc(F)cc2c1C(=O)O [Brequinar sodium] | One mixed response |  |  |  |  |  |  |  |  |  |  |  |  |  |  |  |  | 
2 | Cc1c(-c2ccc(-c3ccccc3F)cc2)nc2ccc(F)cc2c1C(=O)O [brequinar, 6-fluoro-2-(2′-fluoro-1,1′ biphenyl-4-yl)-3-methyl-4-quinoline carboxylic acid] |  | 6 | positive response | positive response | positive response | ≥ 1,600 ng/mL | 84 h | less than 24 hours | ≥ 2,900 ng/mL | 84 h | < 24 h | ≥ 133 ng/mL | 84 h | less than 2 hours | weight loss, anemia, and thrombocytopenia | without significant modifications of individual drug pharmacokinetic parameters | 650 mg/m^2 | about 100 ng/mL
